From patent publication US20250195521A1 (Revolution Medicines, Inc., priority 2020, published 2025)

Experiments:
Assay type in all cases: cell-based, human
AsPC-1 (K-Ras G12D) [1] = assay: CellTiter-Glo cell viability assay, AsPC-1; details: Homo sapiens, ASPC1, 120 h, read-out: AsPC-1 Cell Viability IC50
Experimental: (§1) Note—The following protocol describes a procedure for monitoring cell viability of K-Ras mutant cancer cell lines in response to a compound of the invention. Other RAS isoforms may be employed, though the number of cells to be seeded will vary based on cell line used.
(§2) Test compounds (132.5 nL) were directly dispensed into the assay plates containing cells. […] On day 5, assay plates and their contents were equilibrated to room temperature for approximately 30 minutes. […] Luminescence was measured using the PerkinElmer Enspire. Data were normalized by the following: (Sample signal/Avg. DMSO)*100. The data were fit using a four-parameter logistic fit.

NCI-H358 (K-Ras G12C) = assay: CellTiter-Glo cell viability assay, H358; details: Homo sapiens, NCI-H358, 120 h, read-out: H358 Cell Viability IC50, K-Ras G12C, 5-day treatment
Experimental: as §1, §2

AsPC-1 (K-Ras G12D) [2] = assay: Potency assay: pERK; details: Homo sapiens, ASPC1, read-out: pERK EC50
Summary of the method: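 Cells plated overnight, then exposed 4 h at 37 °C to 10-point 3-fold dilutions of compound, in duplicate. pERK read by AlphaLISA SureFire Ultra p-ERK1/2 lysate assay or by In-Cell Western (pERK antibody, DRAQ5 DNA normalisation). IC50 from 4-parameter sigmoidal fit of signal vs log concentration.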

CCn1c(-c2cnccc2COC)c2c3cc(ccc31)-c1cc(O)cc(c1)C[C@H](NC(=O)[C@H](C(C)C)N(C)C(=O)CN(C)C(=O)[C@H]1CN1)C(=O)N1CCC[C@H](N1)C(=O)OCC(C)(C)C2 [Example 7, (2R)—N-(2-(((2S)-1-(((6^3S,4S)-1^1-ethyl-25-hydroxy-1^2-(4-(methoxymethyl)pyridin-3-yl)-10,10-dimethyl-5,7-dioxo-6^1,6^2,6^3,6^4,6^5,6^6-hexahydro-1^1H-8-oxa-1 (5,3)-indola-6 (1,3)-pyridazina-2 (1,3)-benzenacycloundecaphane-4-yl)amino)-3-methyl-1-oxobutan-2-yl) (methyl)amino)-2-oxoethyl)-N-methylaziridine-2-carboxamide]
IC50 (AsPC-1 (K-Ras G12D) [1]): 0.1 to 1 µM | IC50 (NCI-H358 (K-Ras G12C)): 0.01 to 0.1 µM | EC50 (AsPC-1 (K-Ras G12D) [2]): < 5 µM

CCn1c(-c2cnccc2COC)c2c3cc(ccc31)-c1cc(O)cc(c1)C[C@H](NC(=O)[C@H](C(C)C)N(C)C(=O)CN(C)C(=O)[C@H]1CN1Cc1ccccc1)C(=O)N1CCC[C@H](N1)C(=O)OCC(C)(C)C2 (stereo partly shown) [Example 9]
IC50 (AsPC-1 (K-Ras G12D) [1]): 1 to 10 µM | IC50 (NCI-H358 (K-Ras G12C)): 0.01 to 0.1 µM | EC50 (AsPC-1 (K-Ras G12D) [2]): < 5 µM

CCn1c(-c2cnccc2COC)c2c3cc(ccc31)-c1cc(O)cc(c1)C[C@H](NC(=O)[C@H](C(C)C)N(C)C(=O)CN(C)C(=O)[C@@H]1CN1Cc1ccccc1)C(=O)N1CCC[C@H](N1)C(=O)OCC(C)(C)C2 (stereo partly shown) [Example 10]
IC50 (AsPC-1 (K-Ras G12D) [1]): 1 to 10 µM | IC50 (NCI-H358 (K-Ras G12C)): 0.01 to 0.1 µM | EC50 (AsPC-1 (K-Ras G12D) [2]): < 5 µM

CCn1c(-c2cnccc2COC)c2c3cc(ccc31)-c1cc(O)cc(c1)C[C@H](NC(=O)[C@H](C(C)C)N(C)C(=O)CN(C)C(=O)C1CN1)C(=O)N1CCC[C@H](N1)C(=O)OCC(C)(C)C2 (stereo partly shown) [Example 33]
IC50 (NCI-H358 (K-Ras G12C)): 0.01 to 0.1 µM | EC50 (AsPC-1 (K-Ras G12D) [2]): < 5 µM

CCn1c(-c2cnccc2COC)c2c3cc(ccc31)-c1cc(O)cc(c1)C[C@H](NC(=O)[C@H](C(C)C)N(C)C(=O)CN(C)C(=O)[C@@H]1N[C@@H]1C(=O)OC)C(=O)N1CCC[C@H](N1)C(=O)OCC(C)(C)C2 [Example 49, methyl (2S,3R)-3-((2-(((2S)-1-(((6^3S,4S)-1^1-ethyl-25-hydroxy-1^2-(4-(methoxymethyl)pyridin-3-yl)-10,10-dimethyl-5,7-dioxo-6^1,6^2,6^3,6^4,6^5,6^6-hexahydro-1^1H-8-oxa-1 (5,3)-indola-6 (1,3)-pyridazina-2 (1,3)-benzenacycloundecaphane-4-yl)amino)-3-methyl-1-oxobutan-2-yl) (methyl)amino)-2-oxoethyl) (methyl)carbamoyl) aziridine-2-carboxylate]
IC50 (AsPC-1 (K-Ras G12D) [1]): 1 to 10 µM | IC50 (NCI-H358 (K-Ras G12C)): 1 to 10 µM | EC50 (AsPC-1 (K-Ras G12D) [2]): < 5 µM

CCn1c(-c2cccnc2[C@H](C)OC)c2c3cc(ccc31)-c1cc(O)cc(c1)C[C@H](NC(=O)[C@H](C(C)C)N(C)C(=O)CN(C)C(=O)[C@@H]1N[C@H]1COC)C(=O)N1CCC[C@H](N1)C(=O)OCC(C)(C)C2 [Example 85]
IC50 (AsPC-1 (K-Ras G12D) [1]): 1 to 10 µM | IC50 (NCI-H358 (K-Ras G12C)): 0.01 to 0.1 µM | EC50 (AsPC-1 (K-Ras G12D) [2]): < 5 µM

CCn1c(-c2cccnc2[C@H](C)OC)c2c3cc(ccc31)-c1cc(O)cc(c1)C[C@H](NC(=O)[C@H](C(C)C)N(C)C(=O)CN(C)C(=O)C1CN1CCOC)C(=O)N1CCC[C@H](N1)C(=O)OCC(C)(C)C2 (stereo partly shown) [Example 90]
IC50 (AsPC-1 (K-Ras G12D) [1]): 0.1 to 1 µM | IC50 (NCI-H358 (K-Ras G12C)): < 0.01 µM | EC50 (AsPC-1 (K-Ras G12D) [2]): < 5 µM

CCn1c(-c2cccnc2[C@H](C)OC)c2c3cc(ccc31)-c1cc(O)cc(c1)C[C@H](NC(=O)[C@H](C(C)C)N(C)C(=O)CN(C)C(=O)[C@H]1CN1CCO)C(=O)N1CCC[C@H](N1)C(=O)OCC(C)(C)C2 (stereo partly shown) [Example 161]
IC50 (AsPC-1 (K-Ras G12D) [1]): 1 to 10 µM | EC50 (AsPC-1 (K-Ras G12D) [2]): < 5 µM

CCn1c(-c2cccnc2[C@H](C)OC)c2c3cc(ccc31)-c1cc(O)cc(c1)C[C@H](NC(=O)[C@H](C(C)C)N(C)C(=O)CN(C)C(=O)[C@@H]1CN1CCO)C(=O)N1CCC[C@H](N1)C(=O)OCC(C)(C)C2 (stereo partly shown) [Example 162]
IC50 (AsPC-1 (K-Ras G12D) [1]): 1 to 10 µM | EC50 (AsPC-1 (K-Ras G12D) [2]): < 5 µM

CCn1c(-c2cccnc2[C@H](C)OC)c2c3cc(ccc31)-c1cc(O)cc(c1)C[C@H](NC(=O)[C@H](C(C)C)N(C)C(=O)CN(C)C(=O)[C@H]1CN1CCCN1CCCC1=O)C(=O)N1CCC[C@H](N1)C(=O)OCC(C)(C)C2 (stereo partly drawn) [Example 268, (2R)—N-(2-(((2S)-1-(((6^3S,4S)-1^1-ethyl-25-hydroxy-1^2-(2-((S)-1-methoxyethyl)pyridin-3-yl)-10,10-dimethyl-5,7-dioxo-6^1,6^2,6^3,6^4,6^5,6^6-hexahydro-1^1H-8-oxa-1 (5,3)-indola-6 (1,3)-pyridazina-2 (1,3)-benzenacycloundecaphane-4-yl)amino)-3-methyl-1-oxobutan-2-yl) (methyl)amino)-2-oxoethyl)-N-methyl-1-(3-(2-oxopyrrolidin-1-yl)propyl) aziridine-2-carboxamide]
IC50 (AsPC-1 (K-Ras G12D) [1]): 1 to 10 µM | EC50 (AsPC-1 (K-Ras G12D) [2]): < 5 µM

CCn1c(-c2cccnc2[C@H](C)OC)c2c3cc(ccc31)-c1cc(O)cc(c1)C[C@H](NC(=O)[C@H](C(C)C)N(C)C(=O)CN(C)C(=O)[C@@H]1CN1CC(=O)N(C)C)C(=O)N1CCC[C@H](N1)C(=O)OCC(C)(C)C2 (stereo partly shown) [Example 271]
IC50 (AsPC-1 (K-Ras G12D) [1]): > 10 µM | EC50 (AsPC-1 (K-Ras G12D) [2]): < 5 µM

CCn1c(-c2cccnc2[C@H](C)OC)c2c3cc(ccc31)-c1cc(O)cc(c1)C[C@H](NC(=O)[C@H](C(C)C)N(C)C(=O)CN(C)C(=O)[C@H]1CN1CCCN1CCOC1=O)C(=O)N1CCC[C@H](N1)C(=O)OCC(C)(C)C2 (stereo partly shown) [Example 272]
IC50 (AsPC-1 (K-Ras G12D) [1]): 1 to 10 µM | EC50 (AsPC-1 (K-Ras G12D) [2]): < 5 µM

CCn1c(-c2cccnc2[C@H](C)OC)c2c3cc(ccc31)-c1cc(O)cc(c1)C[C@H](NC(=O)[C@H](C(C)C)N(C)C(=O)CN(C)C(=O)[C@H]1CN1C1COC1)C(=O)N1CCC[C@H](N1)C(=O)OCC(C)(C)C2 (stereo partly shown) [Example 275]
IC50 (AsPC-1 (K-Ras G12D) [1]): 1 to 10 µM | EC50 (AsPC-1 (K-Ras G12D) [2]): < 5 µM

CCn1c(-c2cccnc2[C@H](C)OC)c2c3cc(ccc31)-c1cc(O)cc(c1)C[C@H](NC(=O)[C@H](C(C)C)N(C)C(=O)CN(C)C(=O)[C@@H]1CN1CC1COC1)C(=O)N1CCC[C@H](N1)C(=O)OCC(C)(C)C2 (stereo partly shown) [Example 278]
IC50 (AsPC-1 (K-Ras G12D) [1]): 1 to 10 µM | EC50 (AsPC-1 (K-Ras G12D) [2]): < 5 µM

CCn1c(-c2cccnc2[C@H](C)OC)c2c3cc(ccc31)-c1cc(O)cc(c1)C[C@H](NC(=O)[C@H](C(C)C)N(C)C(=O)CN(C)C(=O)[C@@H]1N[C@@H]1C1COC1)C(=O)N1CCC[C@H](N1)C(=O)OCC(C)(C)C2 [Example 281]
IC50 (AsPC-1 (K-Ras G12D) [1]): 0.1 to 1 µM | EC50 (AsPC-1 (K-Ras G12D) [2]): < 5 µM

CCn1c(-c2cccnc2[C@H](C)OC)c2c3cc(ccc31)-c1cc(O)cc(c1)C[C@H](NC(=O)[C@H](C(C)C)N(C)C(=O)CN(C)C(=O)[C@H]1N[C@H]1C1COC1)C(=O)N1CCC[C@H](N1)C(=O)OCC(C)(C)C2 [Example 282]
IC50 (AsPC-1 (K-Ras G12D) [1]): 1 to 10 µM | EC50 (AsPC-1 (K-Ras G12D) [2]): < 5 µM

CCn1c(-c2cccnc2[C@H](C)OC)c2c3cc(ccc31)-c1cc(O)cc(c1)C[C@H](NC(=O)[C@H](C(C)C)N(C)C(=O)CN(C)C(=O)[C@H]1N[C@@H]1C1COC1)C(=O)N1CCC[C@H](N1)C(=O)OCC(C)(C)C2 [Example 284]
IC50 (AsPC-1 (K-Ras G12D) [1]): 1 to 10 µM | EC50 (AsPC-1 (K-Ras G12D) [2]): < 5 µM
